These results are taken from publication PMC12027946, “Ionic and Non-Ionic Counterparts Based on Bis(Uracilyl)Alkane Moiety with Highest Selectivity Towards Acetylcholinesterase for Protection Against Organophosphate Poisoning and Treating Alzheimer’s Disease” (International Journal of Molecular Sciences, 2025).

For orientation: IC50 means the point on the concentration scale where inhibition reaches its midpoint.

Each structure is given as a SMILES string. Read-outs that look alike come from different tables or passages of the source.

Series [1] deals with T1, human AChE (Homo sapiens, UniProt P22303).
T1 construct: purchased Sigma-Aldrich
T1 sequence (P22303 32-614): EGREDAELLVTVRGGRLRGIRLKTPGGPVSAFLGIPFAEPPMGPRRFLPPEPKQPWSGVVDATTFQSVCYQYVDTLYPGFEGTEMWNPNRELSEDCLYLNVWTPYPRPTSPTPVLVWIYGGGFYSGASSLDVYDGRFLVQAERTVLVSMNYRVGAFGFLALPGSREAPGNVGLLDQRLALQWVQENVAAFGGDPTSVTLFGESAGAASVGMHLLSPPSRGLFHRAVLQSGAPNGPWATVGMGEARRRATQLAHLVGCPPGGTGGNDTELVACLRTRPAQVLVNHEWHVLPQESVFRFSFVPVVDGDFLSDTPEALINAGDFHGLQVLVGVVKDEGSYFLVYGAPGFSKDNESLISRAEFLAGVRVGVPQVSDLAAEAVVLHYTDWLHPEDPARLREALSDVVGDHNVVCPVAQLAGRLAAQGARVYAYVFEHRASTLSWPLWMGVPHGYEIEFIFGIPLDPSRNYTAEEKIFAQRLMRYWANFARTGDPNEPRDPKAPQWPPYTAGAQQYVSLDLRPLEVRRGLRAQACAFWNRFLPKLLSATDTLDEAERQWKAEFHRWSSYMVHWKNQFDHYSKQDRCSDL
The settings on record: Table 1, bisuracils 1a–f, cited from earlier work; for AChE Selectivity: (IC50 BuChE)/(IC50 AChE).

For series [2], the target named is T2, BChE from human plasma (Homo sapiens, UniProt P06276).
T2 construct: butyrylcholiesterase from human plasma; purchased Sigma-Aldrich; host or cells: human plasma
T2 sequence (P06276 29-602): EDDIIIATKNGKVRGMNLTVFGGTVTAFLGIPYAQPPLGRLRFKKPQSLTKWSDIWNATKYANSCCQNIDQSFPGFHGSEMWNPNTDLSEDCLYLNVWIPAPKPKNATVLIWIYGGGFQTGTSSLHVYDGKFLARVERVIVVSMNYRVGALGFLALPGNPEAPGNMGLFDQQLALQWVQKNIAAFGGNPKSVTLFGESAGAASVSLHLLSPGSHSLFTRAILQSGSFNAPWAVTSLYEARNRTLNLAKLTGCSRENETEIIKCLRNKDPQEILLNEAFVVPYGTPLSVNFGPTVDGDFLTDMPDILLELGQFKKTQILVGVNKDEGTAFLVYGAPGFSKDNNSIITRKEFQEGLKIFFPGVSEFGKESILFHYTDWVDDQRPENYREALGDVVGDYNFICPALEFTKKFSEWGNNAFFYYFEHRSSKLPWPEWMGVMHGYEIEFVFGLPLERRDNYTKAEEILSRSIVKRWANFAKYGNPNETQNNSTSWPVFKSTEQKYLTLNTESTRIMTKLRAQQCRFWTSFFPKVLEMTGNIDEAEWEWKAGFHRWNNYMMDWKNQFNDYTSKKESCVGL
The settings on record: Table 1; bisuracils 1a–f; read-out: IC50 BuChE; cited from earlier work.

The target in series [3] is T1, human AChE. The experiment in a line: In vitro cholinesterase inhibition (Ellman), AChE. It is filed as biochemical. The settings on record: for IC50: read-out: IC50 AChE; for AChE Selectivity: (IC50 BuChE)/(IC50 AChE). The method, then:
(§1) Inhibitory activities of the tested compounds against AChE and BChE were measured according to Ellman et al.. Enzyme-catalysed hydrolysis of ATCHh was carried out at 25 °C in 0.1 M phosphate buffer (pH 8.0) containing 0.25 U AChE, 1 mM ATCHh as substrates, and 0.1 mM of DTNB. In experiments with BuChE, 0.1 M phosphate buffer (pH 7.0) and BuTChh as a substrate were used. The tested compounds were pre-incubated with the enzyme for two minutes prior to the addition of the substrate and the subsequent recording of hydrolysis kinetics. […] A sample without an inhibitor was used as a control (100% cholinesterase activity). A sample without a substrate was used as a blank. Experiments were performed in triplicate.

The target of series [4] is T2, BChE from human plasma. Description: In vitro cholinesterase inhibition (Ellman), BuChE. The series is classed as biochemical. Particulars: read-out: IC50 BuChE. The method, then: as §1
(In general: Ellman's reagent forms a yellow product with free thiols.)

Series [5] has as its system mice poisoned with 2×LD50 of POX. Description: Protection against POX toxicity (pre-treatment). It is filed as in vivo. The settings on record: for relative risk of death (RRD): Cox analysis over 10 h. The method, then:
The concept of using reversible AChE inhibition as a preventive strategy to enhance the efficacy of traditional antidotes in OP poisoning is a well-established principle. This study explores the potential of bisuracil 2b as a preventive agent to protect AChE from irreversible inhibition caused by paraoxon (POX), a model OP. […] Following POX administration, the standard antidote atropine was given at a dose of 15 mg/kg within one minute. […] Increasing the dose of bisuracil 2b reduced the protective effect in POX poisoned animals (Table 3).
We also estimated the relative risk of death (RRD) as a function of precocity (from min to hours) over a period of 10 h by Cox survival analysis. Statistical differences in the number of surviving animals between experimental groups were tested using the Cox–Mantel multisample logarithmic rank criterion. It was shown that, in mice exposed to 0.42 mg/kg of POX, RRD = 1 (Figure 5). However, in animals that received atropine within 1 min after poisoning, POX-induced mortality was lower (RRD = 0.5; Figure 5).
The tested compound was administered via i.p. before POX injection.

The subject of series [6] is scopolamine-induced amnesia in mice. Description: Novel object recognition test, scopolamine-induced amnesia. It is filed as in vivo. The method, then: This study explored the ability of bisuracil 3c to counteract scopolamine-induced amnesia in mice, utilising behavioural assessments conducted through the novel object recognition test. […] The induction of amnesia was facilitated by the i.p. injection of scopolamine (1.5 mg/kg) 50 min prior to testing. […]. An equivalent amount of the vehicle was administered to a control group of mice.
The experiments were carried out on CD1 mice of both sexes weighing 24–25 g. The novel object recognition test was conducted over a period of three days. On the first day, the mice were placed individually into the square testing arena with black walls (50 cm in length, 50 cm in width, 38 cm in height) for 5 min without any objects. On the second day, two identical objects were placed in the central part of the arena, and the mice were allowed to explore the objects for 10 min. Test compounds were administered prior to testing on the second day. The induction of amnesia was facilitated by i.p. injection of scopolamine (1.5 mg/kg) 50 min prior to testing. Tested compounds were administered i.p. 30 min prior to testing. The control group of animals was administered with an equivalent amount of vehicle. On the third day, the mice were presented with a familiar and a novel object for 10 min. The time of exploration of each object by the mice was recorded using a digital camera. After each test, the arena was cleaned with a solution of 70% ethanol. At the end of the test, the preference index (exploration of novel object/total exploration time × 100) was calculated.

A further series concerns AChE. Particulars: cited from earlier work.
[7] abbreviates: Table 1, recombinant human AChE, 25 °C, pH 8.0.
The mark [8] stands for this setting: Table 1, BChE from human plasma, pH 7.0.

In the case of `CC[N+](CC)(CCCCCn1c(=O)ccn(CCCCCn2c(C)cc(=O)n(C)c2=O)c1=O)Cc1ccccc1[N+](=O)[O-]` [1a], the “AChE Selectivity” value on human AChE [1] was 112,676. The half-inhibitory concentration (IC50) was 0.0004 ± 3e-05 µM at human AChE [1] and 40 µM on BChE from human plasma [2].
On to `CC[N+](CC)(CCCCCn1c(=O)ccn(CCCCCCn2c(C)cc(=O)n(C)c2=O)c1=O)Cc1ccccc1[N+](=O)[O-]` [1b], for which, on human AChE [1], the “AChE Selectivity” value is 60,000 and the IC50 was 0.0001 ± 1e-05 µM. In addition, the concentration for half-maximal inhibition (IC50) on BChE from human plasma [2] is 6 ± 0.43 µM.
As for `CC[N+](CC)(CCCCCn1c(=O)ccn(CCCn2c(C)cc(=O)n(C)c2=O)c1=O)Cc1ccccc1C(F)(F)F` [1c], at human AChE [1], the “AChE Selectivity” value is 220,000. Further, the half-inhibitory concentration (IC50) on human AChE [1] was 0.002 ± 0.0002 µM; at BChE from human plasma [2], 440 µM.
For `CC[N+](CC)(CCCCCn1c(=O)ccn(CCCCn2c(C)cc(=O)n(C)c2=O)c1=O)Cc1ccccc1C(F)(F)F` [1d], the “AChE Selectivity” value on human AChE [1] is reported as 200,000. In addition, the figures for the IC50 at human AChE [1] and on BChE from human plasma [2] were 0.001 ± 0.0001 µM and 200 µM, respectively.
On to `CC[N+](CC)(CCCCCn1c(=O)ccn(CCCCCn2c(C)cc(=O)n(C)c2=O)c1=O)Cc1ccccc1C(F)(F)F` [1e], for which the “AChE Selectivity” value at human AChE [1] is listed as 120,000. The IC50 at human AChE [1] was 0.0005 ± 3e-05 µM; on BChE from human plasma [2], 60 µM.
For `CC[N+](CC)(CCCCCn1c(=O)ccn(CCCCCCn2c(C)cc(=O)n(C)c2=O)c1=O)Cc1ccccc1C(F)(F)F` [1f], at human AChE [1], the “AChE Selectivity” value was 200,000 and the IC50 is 0.0002 ± 1e-05 µM. Further, at BChE from human plasma [2], the IC50 was 40 µM.
For `CC[N+](CC)(CCCCCn1c(=O)ccn(CCCn2c(C)cc(=O)n(C)c2=O)c1=O)Cc1ccccc1C#N` [2a, 1,3-{(3,6-Dimethyluracil-1-yl)-[3-(5-o-nitrilebenzyl(diethyl)ammonio)pentyl)-uracil-1-yl]}propane bromide], the IC50 at human AChE [3] (setting [7]) is 0.0003 ± 3e-05 µM; at BChE from human plasma [4] (setting [8]), 370 µM.
Consider `CC[N+](CC)(CCCCCn1c(=O)ccn(CCCCCn2c(C)cc(=O)n(C)c2=O)c1=O)Cc1ccccc1C#N` [2c, 1,5-{(3,6-Dimethyluracil-1-yl)-[3-(5-o-nitrilebenzyl(diethyl)ammonio)pentyl)-uracil-1-yl]}pentane bromide], for which the “AChE Selectivity” value at human AChE [3] (Table 1) is 388,888. Further, the IC50 at human AChE [3] (setting [7]) was 0.0002 ± 6e-05 µM; at BChE from human plasma [4] (setting [8]), 70 µM.
For `CC[N+](CC)(CCCCCn1c(=O)ccn(CCCCCCn2c(C)cc(=O)n(C)c2=O)c1=O)Cc1ccccc1C#N` [2d, 1,6-{(3,6-Dimethyluracil-1-yl)-[3-(5-o-nitrilebenzyl(diethyl)ammonio)pentyl)-uracil-1-yl]}hexane bromide], the “AChE Selectivity” value at human AChE [3] (Table 1) is 57,034. The figures for the concentration for half-maximal inhibition (IC50) on human AChE [3] (setting [7]) and at BChE from human plasma [4] (setting [8]) were 0.0005 ± 0.00016 µM and 30 µM, respectively.
Take `CCN(CCCCCn1c(=O)ccn(CCCn2c(C)cc(=O)n(C)c2=O)c1=O)Cc1ccccc1C#N` [3a]: the “AChE Selectivity” value at human AChE [3] (Table 2) was 11,290. The IC50 was found to be 0.0061 ± 0.0007 µM on human AChE [3] (Table 2, human AChE) and 69.1 µM on BChE from human plasma [4] (Table 2, human BuChE).
With `CCN(CCCCCn1c(=O)ccn(CCCCn2c(C)cc(=O)n(C)c2=O)c1=O)Cc1ccccc1C#N` [3b], the “AChE Selectivity” value on human AChE [3] (Table 2) stood at 6090. Moreover, the 50% inhibitory concentration (IC50) at human AChE [3] (Table 2, human AChE) was 0.0079 ± 0.00025 µM; at BChE from human plasma [4] (Table 2, human BuChE), 48.3 µM.
Turning to `CCN(CCCCCn1c(=O)ccn(CCCCCCn2c(C)cc(=O)n(C)c2=O)c1=O)Cc1ccccc1C#N` [3d], the half-maximal inhibitory concentration (IC50) at human AChE [3] (Table 2, human AChE) worked out at 0.0054 ± 0.0007 µM; on BChE from human plasma [4] (Table 2, human BuChE) it was 95 µM.
As to `CN1[C@@H]2CC[C@H]1C[C@@H](OC(=O)C(CO)c1ccccc1)C2` (stereo partly drawn) [Atropine, atropine, reference compound], in series [5] (atropine 15 mg/kg i.p. 1 min after POX 0.42 mg/kg i.p., no pre-treatment), the “n/N (mice surviving 5 days after POX poisoning / total)” value is on record as 6/12. For the same molecule, the “relative risk of death (RRD)” value in series [5] (atropine within 1 min after POX) is on record as 0.5.
As to `COc1cc2c(cc1OC)C(=O)C(CC1CCN(Cc3ccccc3)CC1)C2` (stereo not drawn) [Donepezil, donepezil, reference compound], the “increase in the preference for the novel object compared to the scopolamine-treated group” value in series [6] (donepezil 1 mg/kg i.p. 30 min prior to testing, scopolamine 1.5 mg/kg, p = 0.03) is listed as 32.2%.
As to `CCOP(=O)(OCC)Oc1ccc([N+](=O)[O-])cc1` [POX, paraoxon, reference compound], in series [5] (POX 0.42 mg/kg alone), the “relative risk of death (RRD)” value came out at 1. The “n/N (mice surviving 5 days after POX poisoning / total)” value in series [5] (POX 0.42 mg/kg i.p. (2×LD50) alone) is listed as 0/12.
Take `COc1ccc2c3c1O[C@H]1C[C@@H](O)C=C[C@@]31CCN(C)C2` [galantamine]: in the series on AChE, the “selectivity for AChE over BuChE” value is given as 50 fold.
As to `CCN(C)C(=O)Oc1cccc([C@H](C)N(C)C)c1` [rivastigmine], the “inhibition profile (AChE vs BuChE)” value with AChE is listed as “non-selective”.
In the case of `CN1[C@@H]2C[C@@H](OC(=O)[C@H](CO)c3ccccc3)C[C@H]1[C@@H]1O[C@@H]12` [scopolamine, reference compound], in series [6] (scopolamine 1.5 mg/kg i.p. 50 min prior to testing, p = 0.0001), the “reduction of the preference for the novel object compared to the control group” value is given as 34.1%.
